Measurements taken from PubChem BioAssay AID1383 (University of Pittsburgh Molecular Library Screening Center, 2008).
Calls of active or inactive are those of the source. How the calls were made is not given here.

Target: Serine/threonine-protein kinase PLK1 (Homo sapiens) (UniProt P53350)
Assay: activity against human Plk1 kinase – biochemical, selectivity assay for PKD inhibitor project, dose response (AID 1383)
Conditions: counterscreen

Chain of Serine/threonine-protein kinase PLK1 (Homo sapiens) (P53350 whole entry, looked up): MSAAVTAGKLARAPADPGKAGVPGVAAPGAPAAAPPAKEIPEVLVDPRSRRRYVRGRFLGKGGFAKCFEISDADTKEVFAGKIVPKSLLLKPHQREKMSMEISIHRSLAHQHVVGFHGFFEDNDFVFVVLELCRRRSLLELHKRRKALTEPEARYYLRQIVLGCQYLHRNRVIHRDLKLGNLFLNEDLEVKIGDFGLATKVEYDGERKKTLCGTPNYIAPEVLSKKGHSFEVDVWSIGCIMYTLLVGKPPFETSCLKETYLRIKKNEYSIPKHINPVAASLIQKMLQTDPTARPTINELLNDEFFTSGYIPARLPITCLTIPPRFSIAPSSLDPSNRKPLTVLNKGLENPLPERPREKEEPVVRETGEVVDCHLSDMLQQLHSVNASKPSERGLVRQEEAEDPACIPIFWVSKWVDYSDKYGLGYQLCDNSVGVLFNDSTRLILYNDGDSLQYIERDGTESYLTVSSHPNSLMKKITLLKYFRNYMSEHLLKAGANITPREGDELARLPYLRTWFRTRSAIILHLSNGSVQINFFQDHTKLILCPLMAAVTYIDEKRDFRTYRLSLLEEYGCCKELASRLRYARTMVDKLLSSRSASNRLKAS

## Clc1cncc(Cl)c1N/N=C/c1ccncc1
  IC50: > 50 µM (inactive)
